Experimental data: patent US11753399B2, “Therapeutic compounds” (Gilead Sciences, Inc., priority 2018, dated 2023)

Key:
[1] = system: HIV-IIIb; assay: Test A: Antiviral Assay in MT4 Cells; type: cell-based, HIV-1; conditions: Human immunodeficiency virus 1, MT4, 120 h, inhibition of virus-induced cell killing, MT-4 cells, HIV-IIIb, 5 days, values normalized to 100%; for inhibition at 0.01 µM: from dose response curve at 0.01 μM (10 nM), read-out: % inhibition at 0.01 μM; for inhibition at 0.2 µM: from dose response curve at 0.20 μM (200 nM), read-out: % inhibition at 0.20 μM
Experimental: (§1) MT-4 cells were next mixed with HIV-IIIb at a multiplicity of infection (m.o.i.) of 0.003 for 1 hour, after which time 35 μL of virus/cell mixture (2000 cells) was immediately added to each well containing 40 μL of diluted compound. The plates were then incubated at 37° C. for 5 days. After 5 days of incubation, 25 μl of 2× concentrated CellTiter-Glo Reagent (catalog #G7571, Promega Biosciences, Inc., Madison, Wis.) was added to each well containing MT-4 cells. Cell lysis was carried out by incubating at room temperature for 10 min and then chemiluminescence was read.

[2] = Test B: Cytotoxicity Assay (same protocol as Test A, uninfected cells); type: cell-based; conditions: human, uninfected MT-4 cells, CellTiter-Glo
Experimental: as §1, with “read. […] Compound cytotoxicity and the corresponding CC50 values was determined using the same protocol as described in the antiviral assay (Test A) except that uninfected cells were used.” for “read.”

| SMILES | inhibition at 0.01 µM [1] [%] | inhibition at 0.2 µM [1] [%] | CC50 at 5 days [2] [µM] |
| --- | --- | --- | --- |
| Cn1nc(Nc2nnc(C3(O)CC3)o2)c2c(Cl)ccc(-c3ccc(C#CC(C)(C)S(=O)(=O)C4CC4)nc3[C@H](Cc3cc(F)cc(F)c3)NC(=O)Cn3nc(C(F)F)c4c3C(F)(F)[C@@H]3C[C@H]43)c21 [Example 28] | 99 | 99 | 16.5 |
| CC1(S(=O)(=O)Nc2nn(CC(F)(F)F)c3c(-c4ccc(C#CC(C)(C)S(=O)(=O)C5CC5)nc4[C@H](Cc4cc(F)cc(F)c4)NC(=O)Cn4nc(C(F)(F)F)c5c4C(F)(F)[C@@H]4C[C@H]54)ccc(Cl)c23)CC1 [Example 29] | 100 | 100 | > 57.1 |
| Cn1nc(Nc2nnc(C(F)F)o2)c2c(Cl)ccc(-c3ccc(C#CC(C)(C)S(=O)(=O)C4CC4)nc3[C@H](Cc3cc(F)cc(F)c3)NC(=O)Cn3nc(C(F)F)c4c3C(F)(F)[C@@H]3C[C@H]43)c21 [Example 30] | 99 | 99 | > 57.1 |
| CC1(S(=O)(=O)Nc2nn(CC(F)(F)F)c3c(-c4ccc(C#CC(C)(C)S(=O)(=O)C5CC5)nc4[C@H](Cc4cc(F)cc(F)c4)NC(=O)Cn4nc(C(F)F)c5c4C(F)(F)CCC5(F)F)ccc(Cl)c23)CC1 [Example 31] | 97 | 98 | > 57.1 |
| CC1(S(=O)(=O)Nc2nn(CC(F)(F)F)c3c(-c4ccc(C#CC(C)(C)S(=O)(=O)C5(C)CC5)nc4[C@H](Cc4cc(F)cc(F)c4)NC(=O)Cn4nc(C(F)(F)F)c5c4C(F)(F)[C@@H]4C[C@H]54)ccc(Cl)c23)CC1 [Example 32] | 100 | 100 | > 57.1 |
| CC(C)(C#Cc1ccc(-c2ccc(Cl)c3c(NS(=O)(=O)C4CC4)nn(CC(F)F)c23)c([C@H](Cc2cc(F)cc(F)c2)NC(=O)Cn2nc(C(F)F)c3c2C(F)(F)CCC3(F)F)n1)S(=O)(=O)C1CC1 [Example 33] | 97 | 97 | > 57.1 |
| Cn1nc(NS(=O)(=O)C2(C)CC2)c2c(Cl)ccc(-c3ccc(C#CC(C)(C)S(=O)(=O)C4CC4)nc3[C@H](Cc3cc(F)cc(F)c3)NC(=O)Cn3nc(C(F)F)c4c3C(F)(F)CCC4(F)F)c21 [Example 34] | 89 | 90 | > 57.1 |
| CC(C)(C#Cc1ccc(-c2ccc(Cl)c3c(NS(=O)(=O)C4CC4)nn(CC(F)(F)F)c23)c([C@H](Cc2cc(F)cc(F)c2)NC(=O)Cn2nc(C(F)F)c3c2C(F)(F)[C@@H]2C[C@H]32)n1)S(=O)(=O)C1CC1 [Example 35] | 97 | 97 | > 57.1 |
| CC(C)(C#Cc1ccc(-c2ccc(Cl)c3c(NS(=O)(=O)C4CC4)nn(CC(F)(F)F)c23)c([C@H](Cc2cc(F)cc(F)c2)NC(=O)Cn2nc(C(F)(F)F)c3c2C(F)(F)[C@@H]2C[C@H]32)n1)S(=O)(=O)C1CC1 [Example 36] | 93 | 93 | > 57.1 |
| CC1(S(=O)(=O)Nc2nn(CC(F)F)c3c(-c4ccc(C#CC(C)(C)S(=O)(=O)C5CC5)nc4[C@H](Cc4cc(F)cc(F)c4)NC(=O)Cn4nc(C(F)F)c5c4C(F)(F)CCC5(F)F)ccc(Cl)c23)CC1 [Example 37] | 92 | 92 | > 57.1 |
| Cn1nc(NS(C)(=O)=O)c2c(Cl)ccc(-c3ccc(C#CC(C)(C)S(=O)(=O)C4CC4)nc3[C@H](Cc3cc(F)cc(F)c3)NC(=O)Cn3nc(C(F)F)c4c3C(F)(F)CCC4(F)F)c21 [Example 38] | 93 | 93 | > 57.1 |
| Cn1nc(NS(=O)(=O)C2CC2)c2c(Cl)ccc(-c3ccc(C#CC(C)(C)S(=O)(=O)C4CC4)nc3[C@H](Cc3cc(F)cc(F)c3)NC(=O)Cn3nc(C(F)F)c4c3C(F)(F)CCC4(F)F)c21 [Example 39] | 99 | 99 | > 57.1 |
| Cn1nc(NS(=O)(=O)C2CC2)c2cccc(-c3ccc(C#CC(C)(C)S(=O)(=O)C4CC4)nc3[C@H](Cc3cc(F)cc(F)c3)NC(=O)Cn3nc(C(F)F)c4c3C(F)(F)[C@@H]3C[C@H]43)c21 [Example 40] | 84 | 84 | > 57.1 |
| CC(C)(C#Cc1ccc(-c2ccc(Cl)c3c(NS(=O)(=O)C4CC4)nn(C4COC4)c23)c([C@H](Cc2cc(F)cc(F)c2)NC(=O)Cn2nc(C(F)F)c3c2C(F)(F)[C@@H]2C[C@H]32)n1)S(=O)(=O)C1CC1 [Example 41] | 100 | 100 | > 57.1 |
| CC(C)(C#Cc1ccc(-c2ccc(Cl)c3c(NS(C)(=O)=O)nn(CC(F)F)c23)c([C@H](Cc2cc(F)cc(F)c2)NC(=O)Cn2nc(C(F)F)c3c2C(F)(F)CCC3(F)F)n1)S(=O)(=O)C1CC1 [Example 42] | 89 | 89 | > 57.1 |
| Cn1nc(NS(C)(=O)=O)c2c(Cl)ccc(-c3ccc(C#CC(C)(C)S(=O)(=O)C4CC4)nc3[C@H](Cc3cc(F)cc(F)c3)NC(=O)Cn3nc(C(F)F)cc3C(F)F)c21 [Example 43] | 87 | 87 | > 57.1 |
| Cn1nc(NS(C)(=O)=O)c2c(Cl)ccc(-c3ccc(C#CC(C)(C)S(=O)(=O)C4CC4)nc3[C@H](Cc3cc(F)cc(F)c3)NC(=O)Cn3nc(C(F)(F)F)cc3C3CC3)c21 [Example 44] | 87 | 92 | > 54.8 |
| Cn1nc(NS(C)(=O)=O)c2c(Cl)ccc(-c3ccc(C#CC(C)(C)S(=O)(=O)C4CC4)nc3[C@H](Cc3cc(F)cc(F)c3)NC(=O)Cn3cnnn3)c21 [Example 45] | 96 | 97 | 20.1 |
| Cn1nc(NS(C)(=O)=O)c2c(Cl)ccc(-c3ccc(C#CC(C)(C)S(=O)(=O)C4CC4)nc3[C@H](Cc3cc(F)cc(F)c3)NC(=O)Cc3nnn[nH]3)c21 [Example 46] | 0 | 10 | > 54.6 |
| Cn1nc(NS(C)(=O)=O)c2c(Cl)ccc(-c3ccc(C#CC(C)(C)S(=O)(=O)C4CC4)nc3[C@H](Cc3cc(F)cc(F)c3)NC(=O)Cn3cnnc3)c21 [Example 47] | 0 | 0 | > 57.1 |
| Cn1nc(NS(C)(=O)=O)c2c(Cl)ccc(-c3ccc(C#CC(C)(C)S(=O)(=O)C4CC4)nc3[C@H](Cc3cc(F)cc(F)c3)NC(=O)Cn3ccnn3)c21 [Example 48] | 0 | 0 | > 57.1 |
| Cn1nc(NS(C)(=O)=O)c2c(Cl)ccc(-c3ccc(C#CC(C)(C)S(=O)(=O)C4CC4)nc3[C@H](Cc3cc(F)cc(F)c3)NC(=O)Cn3ccnc3)c21 [Example 49] | 0 | 90 | > 57.1 |
| Cn1nc(NS(C)(=O)=O)c2c(Cl)ccc(-c3ccc(C#CC(C)(C)S(=O)(=O)C4CC4)nc3[C@H](Cc3cc(F)cc(F)c3)NC(=O)Cn3cccn3)c21 [Example 50] | 0 | 36 | > 53.6 |
| CCS(=O)(=O)Nc1nn(CC(F)F)c2c(-c3ccc(C#CC(C)(C)S(=O)(=O)C4CC4)nc3[C@H](Cc3cc(F)cc(F)c3)NC(=O)Cn3nc(C(F)F)c4c3C(F)(F)[C@@H]3C[C@H]43)cccc12 [Example 51] | 67 | 91 | 51.2 |
| CC(C)(C#Cc1ccc(-c2cccc3c(NS(=O)(=O)C4CC4)nn(CC(F)F)c23)c([C@H](Cc2cc(F)cc(F)c2)NC(=O)Cn2nc(C(F)F)c3c2C(F)(F)[C@@H]2C[C@H]32)n1)S(=O)(=O)C1CC1 [Example 52] | 93 | 93 | > 57.1 |
| Cn1nc(NS(C)(=O)=O)c2c(Cl)ccc(-c3ccc(C#CC(C)(C)S(=O)(=O)C4CC4)nc3[C@H](Cc3cc(F)cc(F)c3)NC(=O)Cc3nc4ccccc4[nH]3)c21 [Example 54] | 18 | 99 | 29.8 |
| Cn1nc(NS(C)(=O)=O)c2c(Cl)ccc(-c3ccc(C#CC(C)(C)S(=O)(=O)C4CC4)nc3[C@H](Cc3cc(F)cc(F)c3)NC(=O)c3ccn[nH]3)c21 [Example 55] | 86 | 96 | 22.2 |
| Cn1nc(NS(C)(=O)=O)c2c(Cl)ccc(-c3ccc(C#CC(C)(C)S(=O)(=O)C4CC4)nc3[C@H](Cc3cc(F)cc(F)c3)NC(=O)Cn3nc(C(F)F)c(Cl)c3C(F)F)c21 [Example 56] | 0 | 91 | 23.5 |
| CC(C)(C#Cc1ccc(-c2ccc(F)c3c(NS(=O)(=O)C4CC4)nn(CC(F)F)c23)c([C@H](Cc2cc(F)cc(F)c2)NC(=O)Cn2nc(C(F)(F)F)c3c2C(F)(F)[C@@H]2C[C@H]32)n1)S(=O)(=O)C1CC1 [Example 57] | 59 | 91 | > 57.1 |
